Measured values published in article PMC10377643, “Exploration of Bis-Cinnamido-Polyamines as Intrinsic Antimicrobial Agents and Antibiotic Enhancers” (Biomolecules, 2023).

Legend:
S. aureus = system: S. aureus; parameters: method as in PMID 22515429; conditions: natural product; cited from earlier work
C. albicans ATCC 90028 = assay: Antifungal MIC, C. albicans (CO-ADD); format: cell-based; conditions: Candida albicans, ATCC90028, mean (n = 2)
In short: (§1)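 Broth susceptibility MICs against the listed ATCC strains. S. aureus and P. aeruginosa tested per a previously reported protocol; MRSA and C. albicans tested under CO-ADD (University of Queensland) standard protocols.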

S. aureus ATCC 25923 = assay: Antimicrobial MIC, S. aureus; format: cell-based; conditions: Staphylococcus aureus, ATCC25923, mean (n = 3)
In short: as §1

MRSA ATCC 43300 = assay: Antimicrobial MIC, MRSA (CO-ADD); format: cell-based, methicillin-resistant S. aureus; conditions: Staphylococcus aureus; MRSA ATCC 43300; mean (n = 2); read-out: MIC MRSA
In short: as §1

human red blood cells = assay: Hemolytic assay; format: cell-based; conditions: mean (n = 2)
Experimental: Hemolysis assays were conducted using the protocols previously reported.

P. aeruginosa ATCC 27853 [1] = assay: Antimicrobial MIC, P. aeruginosa; format: cell-based; conditions: Pseudomonas aeruginosa, ATCC27853, mean (n = 3)
In short: as §1

Cytotoxicity assay = format: cell-based, human; conditions: human, HEK293 human embryonic kidney cells, mean (n = 2), read-out: Cytotoxicity (IC50), concentration of compound at 50% cytotoxicity
Experimental: Cytotoxicity assays were conducted using the protocols previously reported.

[2] = system: C. neoformans ATCC 208821; assay: Antifungal MIC, C. neoformans (CO-ADD); format: cell-based; conditions: Cryptococcus neoformans, ATCC208821, mean (n = 2)
E. coli ATCC 25922 [3] = assay: Erythromycin enhancement against E. coli; format: cell-based, Escherichia coli; conditions: erythromycin fixed at 10.9 µM (8 µg/mL)
Experimental: Antibiotic enhancer concentrations were determined using previously reported protocols.

P. aeruginosa ATCC 27853 [4] = assay: Doxycycline enhancement against P. aeruginosa; format: cell-based, Pseudomonas aeruginosa; conditions: doxycycline fixed at 4.5 µM
In short: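 A fixed doxycycline level of 4.5 μM was combined with test compounds over 3.125 to 50–100 μM against P. aeruginosa ATCC 27853. The top concentration was set by each compound's own MIC, and enhancer concentrations followed a previously reported protocol.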

Pseudomonas aeruginosa = system: Pseudomonas aeruginosa; parameters: method as in PMID 22515429; conditions: natural product; cited from earlier work
E. coli ATCC 25922 [5] = assay: Antimicrobial MIC, E. coli; format: cell-based, Escherichia coli; conditions: Escherichia coli, ATCC25922, E. coli ATCC 25922; mean (n = 3)
In short: as §1

COc1c(Br)cc(/C=C/C(=O)NCCCNCCCCNCCCNC(=O)/C=C/c2cc(Br)c(OC)c(Br)c2)cc1Br.O=C(O)C(F)(F)F.O=C(O)C(F)(F)F [Compound 16a, N^1,N^4-Bis(3-((E)-3-(3,5-dibromo-4-methoxyphenyl)acrylamido)propyl)butane-1,4-diaminium 2,2,2-trifluoroacetate]
MIC, growth inhibition towards S. aureus (S. aureus): 17.5 µM | MIC (C. albicans ATCC 90028): 30 µM | MIC (S. aureus ATCC 25923): 5.86 µM | MIC (MRSA ATCC 43300): ≤ 0.23 µM | Hemolysis (HC10), concentration of compound at 10% hemolytic activity (human red blood cells): ≤0.23 µM | MIC (P. aeruginosa ATCC 27853 [1]): 188 µM | IC50 (Cytotoxicity assay): > 30 µM | MIC [2]: ≤ 0.23 µM | Eryth/E. c: concentration required to restore erythromycin activity (E. coli ATCC 25922 [3]): 11.7 µM | Eryth/E. c: fold change (intrinsic MIC of test compound / combination MIC) (E. coli ATCC 25922 [3]): 1 fold | Dox/P. a: concentration required to restore doxycycline activity (P. aeruginosa ATCC 27853 [4]): 5.86 µM | Dox/P. a: fold change (intrinsic MIC of test compound / combination MIC) (P. aeruginosa ATCC 27853 [4]): 32 fold | MIC towards Pseudomonas aeruginosa (Pseudomonas aeruginosa): 8.75 µM | MIC (E. coli ATCC 25922 [5]): 11.7 µM
